biological target: N-type calcium channels (chick cortical synaptosomes) (Gallus gallus, UniProt A0A8V1AJW5); test: 45Ca-uptake/influx into chick cortical synaptosomes (K+ depolarization, 30 mM K+); format: biochemical; conditions: 30 mM K+ minus 4 mM K+, 10 sec influx, 37° C., pH 7.4, read-out: IC50 (concentration of test substance which inhibits the specific uptake of 45Ca by 50%)
Sequence (A0A8V1AJW5 1-2349): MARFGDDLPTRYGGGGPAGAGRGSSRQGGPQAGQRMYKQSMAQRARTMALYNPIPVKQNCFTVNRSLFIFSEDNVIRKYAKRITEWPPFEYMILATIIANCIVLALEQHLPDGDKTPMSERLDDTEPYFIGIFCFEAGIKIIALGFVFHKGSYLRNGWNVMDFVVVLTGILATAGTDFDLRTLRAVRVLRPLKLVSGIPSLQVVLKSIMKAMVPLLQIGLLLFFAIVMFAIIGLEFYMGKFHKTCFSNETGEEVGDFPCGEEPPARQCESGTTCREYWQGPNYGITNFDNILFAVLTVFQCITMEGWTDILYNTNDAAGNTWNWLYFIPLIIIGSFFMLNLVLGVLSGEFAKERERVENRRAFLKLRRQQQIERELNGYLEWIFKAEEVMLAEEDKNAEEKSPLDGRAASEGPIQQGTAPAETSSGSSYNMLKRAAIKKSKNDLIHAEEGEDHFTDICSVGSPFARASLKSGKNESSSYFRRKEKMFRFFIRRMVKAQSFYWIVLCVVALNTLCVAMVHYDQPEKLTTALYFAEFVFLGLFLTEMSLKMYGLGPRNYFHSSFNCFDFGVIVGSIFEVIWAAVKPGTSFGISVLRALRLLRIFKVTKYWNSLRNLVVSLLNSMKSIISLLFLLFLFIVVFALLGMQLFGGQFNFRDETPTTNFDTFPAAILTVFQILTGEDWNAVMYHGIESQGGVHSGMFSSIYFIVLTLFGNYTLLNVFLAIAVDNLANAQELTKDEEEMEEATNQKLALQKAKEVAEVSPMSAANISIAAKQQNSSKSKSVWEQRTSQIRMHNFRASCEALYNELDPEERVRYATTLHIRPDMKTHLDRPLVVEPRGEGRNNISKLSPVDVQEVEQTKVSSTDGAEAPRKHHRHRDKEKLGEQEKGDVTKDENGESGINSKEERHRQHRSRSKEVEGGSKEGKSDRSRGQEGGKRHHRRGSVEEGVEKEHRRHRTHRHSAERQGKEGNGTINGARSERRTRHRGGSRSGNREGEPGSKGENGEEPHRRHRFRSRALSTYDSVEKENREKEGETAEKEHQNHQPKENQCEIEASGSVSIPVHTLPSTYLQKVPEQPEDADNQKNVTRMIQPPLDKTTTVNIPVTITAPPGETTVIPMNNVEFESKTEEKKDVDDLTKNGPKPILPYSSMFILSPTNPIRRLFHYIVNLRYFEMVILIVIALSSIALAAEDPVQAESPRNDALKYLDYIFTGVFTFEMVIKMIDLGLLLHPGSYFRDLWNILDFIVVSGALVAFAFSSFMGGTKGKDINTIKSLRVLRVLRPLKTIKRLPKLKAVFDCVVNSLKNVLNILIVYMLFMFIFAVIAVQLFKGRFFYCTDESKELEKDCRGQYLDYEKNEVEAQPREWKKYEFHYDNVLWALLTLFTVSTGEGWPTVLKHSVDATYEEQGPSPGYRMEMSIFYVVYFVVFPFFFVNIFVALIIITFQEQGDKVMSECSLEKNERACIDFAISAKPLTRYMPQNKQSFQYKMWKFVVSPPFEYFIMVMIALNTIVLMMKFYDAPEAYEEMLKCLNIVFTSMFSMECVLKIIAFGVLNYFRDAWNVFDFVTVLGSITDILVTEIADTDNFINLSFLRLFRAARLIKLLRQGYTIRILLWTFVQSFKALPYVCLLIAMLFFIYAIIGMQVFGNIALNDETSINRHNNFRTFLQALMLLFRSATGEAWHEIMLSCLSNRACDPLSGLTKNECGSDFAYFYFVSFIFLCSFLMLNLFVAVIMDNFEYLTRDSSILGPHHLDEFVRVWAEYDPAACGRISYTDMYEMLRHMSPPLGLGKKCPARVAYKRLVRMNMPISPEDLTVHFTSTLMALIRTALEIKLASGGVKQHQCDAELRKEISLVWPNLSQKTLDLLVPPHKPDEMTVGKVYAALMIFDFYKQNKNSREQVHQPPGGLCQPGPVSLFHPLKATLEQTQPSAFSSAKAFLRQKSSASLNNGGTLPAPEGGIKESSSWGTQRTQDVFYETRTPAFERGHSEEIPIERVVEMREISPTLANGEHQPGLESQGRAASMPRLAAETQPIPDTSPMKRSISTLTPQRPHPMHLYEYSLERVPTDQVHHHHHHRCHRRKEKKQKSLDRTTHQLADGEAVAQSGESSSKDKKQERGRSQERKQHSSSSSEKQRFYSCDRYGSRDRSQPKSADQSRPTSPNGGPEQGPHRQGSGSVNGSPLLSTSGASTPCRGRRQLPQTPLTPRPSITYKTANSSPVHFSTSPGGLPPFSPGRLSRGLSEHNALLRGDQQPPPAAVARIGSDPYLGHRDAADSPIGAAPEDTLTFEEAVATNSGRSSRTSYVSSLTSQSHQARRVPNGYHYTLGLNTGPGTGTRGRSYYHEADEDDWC

Compound	IC50 [nM]
CCCCCN1CC[C@H](CCOc2cccc(C)c2C)[C@H](OC)C1 (racemic) [(±)-cis-4-[2-(2,3-Dimethylphenoxy)-ethyl]-3-methoxy-N-pentylpiperidine]	900
CCCCCN1CC[C@H](CCOc2ccccc2Cc2ccccc2)[C@H](OC)C1 (racemic) [(±)-cis-4-[2-(2-benzylphenoxy)ethyl]-3-methoxy-N-pentylpiperidine]	900
CCCCCN1CC[C@H](CCOc2ccccc2-c2ccccc2)[C@H](OC)C1 (racemic) [(±)-cis-4-[2-(2-phenylphenoxy)ethyl]-3-methoxy-N-pentylpiperidine]	1000
CCCCCN1CC[C@H](CCN(c2ccccc2)c2ccccc2)[C@H](OC)C1 (racemic) [(±)-cis-4-[2-(N,N-diphenylamino)ethyl]-3-methoxy-N-pentylpiperidine]	1100
CCCCCN1CC[C@@H](CCOc2ccccc2Cc2ccccc2)[C@H](OC)C1 (racemic) [(±)-trans-4-[2-(2-benzylphenoxy)ethyl]-3-methoxy-N-pentylpiperidine]	600
CCCCCN1CC[C@@H](CCOc2ccc(Cl)c(Cl)c2)[C@H](OC(C)=O)C1 (racemic) [(±)-trans-4-[2-(3,4-Dichlorophenoxy)-ethyl]-3-acetoxy-N-pentylpiperidine]	500
CCCCCN1CC[C@@H](CCOc2ccc(Cl)c(Cl)c2)[C@H](OC)C1 (racemic) [(±)-trans-4-[2-(3,4-Dichlorophenoxy)-ethyl]-3-methoxy-N-pentylpiperidine]	700
CCCCCN1CC[C@@H](CCOc2cccc(OC(C)C)c2)[C@H](OCCOC)C1 (racemic) [(±)-trans-4-[2-(3-isopropoxyphenoxy)ethyl]-3-(2-methoxy-1-ethoxy)-N-pentylpiperidine]	1100
CCCCCN1CC[C@@H](CCN(c2ccccc2)c2ccccc2)[C@H](OCCOC)C1 (racemic) [(±)-trans-4-[2-(N,N-diphenylamino)ethyl]-3-(2-methoxy-1-ethoxy)-N-pentylpiperidine]	500
CCCCCN1CC[C@@H](CCN(c2ccccc2)c2ccccc2)[C@H](OC)C1 (racemic) [(±)-trans-4-[2-(N,N-diphenylamino)ethyl]-3-methoxy-N-pentylpiperidine]	1300
CCCCCN1CC[C@@H](Oc2ccc(Oc3ccccc3)cc2)[C@H](OCCOC)C1 (racemic) [(±)-trans-4-[4-phenoxyphenoxy]-3-(2-methoxy-1-ethoxy)-N-pentylpiperidine]	620
CCCCCN1CC[C@@H](Oc2ccccc2OCc2ccccc2)[C@H](OCCOC)C1 (racemic) [(±)-trans-4-[(2-benzyloxyphenoxy)]-3-(2-methoxy-1-ethoxy)-N-pentylpiperidine]	900
CCCCCN1CC[C@@H](SCc2ccc(Cl)cc2)[C@H](OCCOC)C1 (racemic) [(±)-trans-4-[(4-chlorobenzyl)thio]-3-(2-methoxy-1-ethoxy)-N-pentylpiperidine]	1000
CCCCCN1CC[C@@H](CCOc2ccc(Cl)c(Cl)c2)[C@@H](OCCOC)C1 (relative stereo) [(±)-cis-4-[2-(3,4-Dichlorophenoxy)-ethyl]-3-(2-methoxy)-ethoxy-N-pentylpiperidine]	300
CCCCCN1CC[C@H](CCOc2ccc(Cl)c(Cl)c2)[C@@H](OCCOC)C1 (relative stereo) [(±)-trans-4-[2-(3,4-Dichlorophenoxy)-ethyl]-3-(2-methoxy)-ethoxy-N-pentylpiperidine]	400

system: not given; test: not given; conditions: drugs that act at both sodium and calcium channels; result in words; cited from earlier work

Compound	anti-ischaemic activity in animal models
Cc1ccc(-c2nc(C)c(CN3CCN(C(c4ccccc4)c4ccccc4)CC3)[nH]2)cc1 [Lifarizine]	powerful anti-ischaemic activity
COc1ccc(CN2CCN(C(c3ccc(F)cc3)c3ccc(F)cc3)CC2)c(OC)c1OC [Lomerizine]	powerful anti-ischaemic activity
Lanodipine	powerful anti-ischaemic activity
